Where two headings read alike, the source gives them in different places.
Assays:
rhesus monkeys [1] = tested on: rhesus monkeys; set-up: method as in PMID 23552372; conditions: 10 mg/kg, active-phase dosing, quantified over 2 h; cited from earlier work
rhesus monkeys [2] = test: Rhesus monkey polysomnography (active wake); type: in vivo; conditions: for Active wake late in the inactive phase and next morning (residual sleep effect): 10 mg/kg p.o. 2 h before lights out, 10 mg/kg
Description: Animals were fed on a calorie-controlled diet of laboratory chow supplemented with fruit and vegetables. Water was available ad libitum with the exception of those monkeys trained to perform cognitive tasks, for which access was restricted for up to 4 h prior to and during cognitive testing. Treatment occurred at 14:40 (Zeitgeber time [ZT] 10:10) in a balanced 1-day cross-over design: 1 day of drug or vehicle followed by 6 days of baseline followed by 1 day of vehicle or drug. Cognition tasks were scheduled for next-day evaluation as described below. Sleep/wake architecture was scored according to vigilance state (active wake, quiet wake, delta sleep I, delta sleep II, and REM sleep) at 30-minute intervals and analyzed as previously described. Spectral analysis of continuous EEG was quantified between vehicle and compound after binning continuous frequencies into canonical frequency bands (reported herein: Delta, 0.5 – 4 Hz; Theta, 4.0 – 7 Hz; Gamma, 35.0 – 100.0 Hz). qEEG values are spectral power (uV2) log transformed before analysis and averaged over 30-minute intervals, expressed as means +/− SEM, and compared with vehicle using a mixed-model ANOVA at each time point with random effects for subject and date within subject in the R statistical computing environment (cran.us.r-project.org; the R Foundation for Statistical Computing, Vienna, Austria) using a linear mixed effects model for significance testing.

in vivo = conditions: rhesus monkey, po, 10 mg/kg
[3] = rhesus monkeys, 10 mg/kg p.o.
rhesus monkeys [4] = test: Monkey Delayed Match to Sample (DMS) task; type: in vivo; conditions: 10 mg/kg p.o., versus vehicle
Excerpt: All cognition testing occurred in the animal’s home cage equipped with a touchscreen. Each DMS trial was initiated with a single ‘sample’ image (150 × 200 pixels: 1.8 inches × 2.3 inches) in one of eight colors presented at the center of a touchscreen. Evaluation began when the monkey touched the sample image, at which point the screen became blank for a retention period. Following the retention period, four choice images (150 × 200 pixels) were presented, one in each corner of the screen. One of the four choice images matched the color of the sample image, whereas the three remaining ‘distractor’ images were drawn from the pool of remaining colors. A reinforcer was provided when the monkey touched the choice image that matched the color of the sample image. […] Test sessions comprised 96 trials or lasted for up to 45 min. […] Response latencies to sample and choice images were also recorded. Values reported reflect the proportion of correct responses collapsed over all retention intervals. Differences from vehicle were examined using repeated measures ANOVA.

rhesus monkeys [5] = conditions: sleep-promoting doses; cited from earlier work
rhesus monkeys [6] = test: Monkey Serial Choice Reaction Time (SCRT) task; type: in vivo; conditions: 10 mg/kg p.o.; for Next-day attention (SCRT, correct responses to shortest cues), 16 h after dosing: versus vehicle, 10 mg/kg
Excerpt: Each SCRT trial was initiated with the appearance of 10 blue square ‘target’ images evenly distributed at 3-inch intervals around the perimeter of a touchscreen presented together with a centrally located circular ‘centering’ image (1.4 inch diameter circle). The task began with the monkey touching the centering image, which then turned gray. The monkey was then required to touch the centering image continuously throughout a variable pre-cue interval of 0.25-7.5 s. On completion of the pre-cue interval, one of the blue target images was cued by turning red for one of four cue durations before turning back to blue. To obtain a reward, the monkey was required to touch the target image that had been ‘cued’ red within a 5 s limited hold period. […] On completion of the trial, an inter-trial interval of 2 s was initiated prior to the next trial. […] If the monkey initiated a trial but removed its hand from the touchscreen prior to the appearance of the cue, the trial was terminated and the screen was blanked during a 2 s inter-trial interval. Sessions were terminated after 20 min. Cue location and duration were pseudo-randomly assigned. Cue duration and the target size were titrated for each subject on the basis of performance during previous baseline sessions to yield a performance of 60–80% correct responses for the trials of the shortest cue duration. The briefest cue duration varied from 0.04–0.1 s and the cues varied in size from 0.2–0.7 inches, although each cue had the same touch-sensitive area of 1.75 inches. Values reported in the current study reflect the proportion of correct responses to targets after cues of the shortest duration only.

[7] = Suvorexant plasma levels in humans (Phase 1)
dogs = conditions: cited from earlier work
OX2R [8] = target: T1, OX2R (Homo sapiens, UniProt O43614); test: Human plasma concentration calculated for a given OX2R occupancy (from transgenic rat occupancy, free-fraction normalized); type: in vivo; conditions: free + bound; normalized for free fraction (rat 1.4%, human 1.0%)
T1 sequence (O43614 1-444): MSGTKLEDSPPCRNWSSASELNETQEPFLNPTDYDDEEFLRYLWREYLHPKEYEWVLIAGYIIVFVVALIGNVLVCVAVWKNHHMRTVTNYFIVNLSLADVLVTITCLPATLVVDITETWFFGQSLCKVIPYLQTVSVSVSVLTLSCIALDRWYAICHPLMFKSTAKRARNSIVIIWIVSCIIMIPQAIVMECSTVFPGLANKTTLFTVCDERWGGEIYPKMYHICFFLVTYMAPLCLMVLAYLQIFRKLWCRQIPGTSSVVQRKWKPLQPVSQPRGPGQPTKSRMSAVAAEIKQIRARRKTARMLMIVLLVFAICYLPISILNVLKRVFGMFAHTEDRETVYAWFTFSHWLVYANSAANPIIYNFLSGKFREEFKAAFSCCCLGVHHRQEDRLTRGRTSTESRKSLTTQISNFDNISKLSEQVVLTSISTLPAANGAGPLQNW

[9] = Unbound (free) plasma fraction, rat
Orexin 2 receptor = target: T2, Orexin 2 receptor (Homo sapiens, UniProt O43614); test: Orexin 2 receptor binding kinetics
T2 sequence (O43614 1-444): T1 sequence (O43614 1-444)

OX2R [10] = target: T1, OX2R; conditions: free + bound; cited from earlier work
[11] = Suvorexant plasma levels in satellite dogs; conditions: 1 or 3 mg/kg p.o.
[12] = Plasma and CSF compound levels in satellite rats; conditions: rats
Description: Separately, the relationship between OX2R occupancy relative to plasma exposure was determined by administering DORA-12 intravenously (i.v.) over a range of doses to transgenic rats expressing human OX2R to determine a full occupancy curve over a wide range of plasma concentrations in order to define the maximal occupancy against which raw occupancy values could be normalized. This relationship was then used to determine the OX2R occupancy in PSG experiments from measured plasma concentrations.
Occupancy of human OX2R in transgenic rats expressing the receptor via the rat enolase promoter was performed ex vivo in radioligand-binding-displacement assays essentially as previously described with minor modifications. To determine the relationship between OX2R occupancy for a given compound over a full range of plasma and CSF concentrations, hOX2R-expressing rats were dosed i.v. with compound. Immediately following 30 min of i.v. administration, animals were anesthetized, sacrificed, and CSF, blood, and brain tissue were harvested and frozen for analysis. Frozen tissue was weighed and thawed coincident with homogenization. The homogenate was pelleted at 21,000 × g for 1 min and the pellet was resuspended. […] Non-specific binding was determined by the addition of 1000-fold excess unlabeled ligand. Experimental (dosed)-specific binding was compared with control (vehicle-dosed) binding ([specific total counts minus specific experimental counts]/specific total counts × 100 = percent occupancy). Raw occupancy values determined in this manner over a range of plasma and CSF values were then used to construct a normalized curve where the theoretical maximum occupancy value was defined as 100% and occupancies relative to plasma or CSF values were fit to a […] (hyperbola) curve (GraphPad Prism, San Diego, CA, USA). […] In separate experiments, plasma, CSF, and brain tissue was collected at time points following dosing to directly measure compound levels and corresponding OX2R occupancies at these times. Resulting occupancy relative to measured plasma levels of compound was fit to a normalized binding curve as described previously.

[13] = Free plasma fraction, human
OX2R [14] = target: T1, OX2R; test: OX2R occupancy, ex vivo radioligand-binding displacement in transgenic rats expressing human OX2R; set-up: from tissue; host or cells: brain homogenate of transgenic rats expressing hOX2R under the rat enolase promoter; species or system transgenic rat; conditions: rats, calculated from plasma value on normalized occupancy curve
Excerpt: Frozen tissue was weighed and thawed coincident with homogenization.

[15] = Unbound (free) plasma fraction, dog

CN1CCN(C(=O)O[C@H]2c3nccnc3C(=O)N2c2ccc(Cl)cn2)CC1 [Eszopiclone]
Attenuation of active wake relative to vehicle (rhesus monkeys [1]): 55.0 min | Time for which reductions in active wake were detectable (rhesus monkeys [2]; 10 mg/kg p.o.): up to 6 h | Active wake late in the inactive phase and next morning (residual sleep effect) (rhesus monkeys [2]): did not demonstrate next-day sleep effects | Active wake late in the inactive phase and next morning (residual sleep effect) (rhesus monkeys [2]; listed as eszopiclone): no consistent attenuation of active wake | Cmax (in vivo): 1680 nM | concentration at 17 h (in vivo): 535 nM | Time of plasma Cmax [3]: 0.5 h | Next-day recognition memory (DMS), 14 h after dosing (rhesus monkeys [4]): did not demonstrate next-day sleep effects or memory impairment | Next-day recognition memory (DMS), 14 h after dosing (rhesus monkeys [4]; listed as eszopiclone): not | Cognitive assessment in DMS and SCRT tasks within 2 h following treatment (rhesus monkeys [5]): substantial deficits | Time for which effects on attention were observed (rhesus monkeys [6]): up to 16 h | Next-day attention (SCRT, correct responses to shortest cues), 16 h after dosing (rhesus monkeys [6]): significantly impair attention | Next-day attention (SCRT, correct responses to shortest cues), 16 h after dosing (rhesus monkeys [6]; listed as eszopiclone): significant deficits

Cc1ccc(-n2nccn2)c(C(=O)N2CCN(c3nc4cc(Cl)ccc4o3)CC[C@H]2C)c1 [Suvorexant, [(7R)-4-(5-chloro-1,3-benzoxazol-2-yl)-7-methyl-1,4-diazepan-1-yl][5-methyl-2-(2H-1,2,3-triazol-2-yl)phenyl]methanone]
Tmax ([7]; human, in vivo): ≤ 3 h | half-life ([7]; human, in vivo): > 8 h | Post-dose time by which mean plasma concentrations fell below level for 65% OX2R occupancy ([7]; humans, 10 and 20 mg doses): ≤ 8 h | Duration of effects on active wake (dogs; 1 mg/kg): up to 4 h | Duration of effects on active wake (dogs; 3 mg/kg): up to 7.5 h | Human plasma concentration calculated to correspond to 65% OX2R occupancy (OX2R [8]): 0.33 µM | fraction unbound [9]: 0.014 | T1/2 OFF (half-life off-rates) (Orexin 2 receptor): 1.49 h | T1/2 ON (binding half-life) (Orexin 2 receptor; almorexant applied 3-fold above its Kd (value an underestimate)): 1.34 h | Plasma level calculated to correspond to 80% OX2R occupancy in humans (OX2R [10]): 0.71 µM | Plasma concentration at time points when efficacy was observed [11]: > 342 nM | Plasma exposure corresponding to efficacy [11]: > 342 nM | Plasma ([12]; dose 10 mg/kg): 1600.0 nM | Plasma ([12]; dose 30 mg/kg): 2100.0 nM | Plasma ([12]; dose 100 mg/kg): 5100.0 nM | fraction unbound [13]: 0.01 | OX2R Occ (% max) (OX2R [14]; dose 10 mg/kg): 92.6 % max | OX2R Occ (% max) (OX2R [14]; dose 30 mg/kg): 94.3 % max | OX2R Occ (% max) (OX2R [14]; dose 100 mg/kg): 97.6 % max | fraction unbound [15]: 0.01
